Reference: PubChem BioAssay AID248 (DTP/NCI, 2004)
“And” between values parts separate entries of the source, which are not always exact repeats. Identical values can stand only once. Inconclusive results and toxic doses are left out. No stated cut-off is given here; in the data, active means T/C of 150% or more; inactive means T/C below 125%.

Tested on: L1210 leukemia ip in BDF1 mice, survival T/C
Assay: NCI In Vivo Anticancer Drug Screen. Data for tumor model L1210 Leukemia (intraperitoneal) in B6D2F1 (BDF1) mice
Settings: endpoint: mean survival time, higher = longer survival
Summary of the method: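 Survival endpoint. Drug-treated group vs vehicle group, expressed as T divided by C. Tumor passaged by transplantation.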

[1] = dose: 100.0 mg/kg/injection, schedule: Q01DX009 (ip), vehicle: saline
[2] = dose: 200.0 mg/kg/injection, schedule: Q01DX009 (ip), vehicle: saline
[3] = dose: 400.0 mg/kg/injection, schedule: Q01DX009 (ip), vehicle: saline
[4] = dose: 100.0 mg/kg/injection, schedule: Q01DX009 (ip), vehicle: saline with Tween-80
[5] = dose: 100.0 mg/kg/injection, schedule: Q04DX003 (ip), vehicle: saline with Tween-80
[6] = dose: 100.0 mg/kg/injection, schedule: Q01DX009 (ip), vehicle: Klucel (hydroxypropylcellulose) (HPC)
[7] = dose: 200.0 mg/kg/injection, schedule: Q01DX009 (ip), vehicle: Klucel (hydroxypropylcellulose) (HPC)
[8] = dose: 400.0 mg/kg/injection, schedule: Q01DX009 (ip), vehicle: Klucel (hydroxypropylcellulose) (HPC)
[9] = dose: 100.0 mg/kg/injection, schedule: Q01DX001 (ip), vehicle: carboxymethylcellulose (CMC)
[10] = dose: 200.0 mg/kg/injection, schedule: Q01DX001 (ip), vehicle: carboxymethylcellulose (CMC)
[11] = dose: 400.0 mg/kg/injection, schedule: Q01DX001 (ip), vehicle: carboxymethylcellulose (CMC)
[12] = dose: 25.0 mg/kg/injection, schedule: Q01DX009 (ip), vehicle: saline with Tween-80
[13] = dose: 50.0 mg/kg/injection, schedule: Q01DX009 (ip), vehicle: saline with Tween-80
[14] = dose: 100.0 mg/kg/injection, schedule: Q01DX001 (ip), vehicle: saline
[15] = dose: 200.0 mg/kg/injection, schedule: Q01DX001 (ip), vehicle: saline
[16] = dose: 400.0 mg/kg/injection, schedule: Q01DX001 (ip), vehicle: saline
[17] = dose: 100.0 mg/kg/injection, schedule: Q04DX002 (ip), vehicle: Klucel (hydroxypropylcellulose) (HPC)
[18] = dose: 200.0 mg/kg/injection, schedule: Q04DX002 (ip), vehicle: Klucel (hydroxypropylcellulose) (HPC)
[19] = dose: 400.0 mg/kg/injection, schedule: Q04DX002 (ip), vehicle: Klucel (hydroxypropylcellulose) (HPC)
[20] = dose: 25.0 mg/kg/injection, schedule: Q04DX003 (ip), vehicle: saline with Tween-80
[21] = dose: 100.0 mg/kg/injection, schedule: Q04DX003 (ip), vehicle: saline
[22] = dose: 200.0 mg/kg/injection, schedule: Q04DX003 (ip), vehicle: saline
[23] = dose: 400.0 mg/kg/injection, schedule: Q04DX003 (ip), vehicle: saline
[24] = dose: 100.0 mg/kg/injection, schedule: Q04DX003 (ip), vehicle: Klucel (hydroxypropylcellulose) (HPC)
[25] = dose: 400.0 mg/kg/injection, schedule: Q04DX003 (ip), vehicle: Klucel (hydroxypropylcellulose) (HPC)

Measured: T/C

O=S(=O)(Nc1ccccc1F)c1ccc2ccccc2c1
inactive: [1] 93 % of control | [2] 93 % of control | [3] 98 % of control

CCOC(=O)CC(=O)c1cccc(S(=O)(=O)F)c1
inactive: [4] 98 % of control | [5] 104 % of control | dose: 200.0 mg/kg/injection, schedule: Q01DX009 (ip), vehicle: saline with Tween-80 103 % of control | dose: 200.0 mg/kg/injection, schedule: Q04DX003 (ip), vehicle: saline with Tween-80 98 % of control | dose: 400.0 mg/kg/injection, schedule: Q01DX009 (ip), vehicle: saline with Tween-80 92 % of control | dose: 400.0 mg/kg/injection, schedule: Q04DX003 (ip), vehicle: saline with Tween-80 102 % of control

CC(CCC(=O)O)(c1ccc(O)cc1)c1ccc(O)cc1
inactive: dose: 100.0 mg/kg/injection, schedule: Q04DX003 (ip), vehicle: other 99 % of control | dose: 200.0 mg/kg/injection, schedule: Q04DX003 (ip), vehicle: other 105 % of control | dose: 400.0 mg/kg/injection, schedule: Q04DX003 (ip), vehicle: other 97 % of control

O=C(Cc1ccccc1)c1ccc2c3c(ccc([N+](=O)[O-])c13)CC2
inactive: dose: 100.0 mg/kg/injection, schedule: Q04DX003 (ip), vehicle: acetone 101 % of control | dose: 200.0 mg/kg/injection, schedule: Q04DX003 (ip), vehicle: acetone 105 % of control | dose: 400.0 mg/kg/injection, schedule: Q04DX003 (ip), vehicle: acetone 105 % of control

O=C(NCCNC(=O)C(Cl)(Cl)Cl)C(Cl)(Cl)Cl
inactive: [6] 89 % of control | [7] 91 % of control | [8] 87 % of control

COC1=C(NCc2ccco2)C(=O)C(OC)=C(NCc2ccco2)C1=O
inactive: dose: 50.0 mg/kg/injection, schedule: Q01DX001 (ip), vehicle: carboxymethylcellulose (CMC) 96 % of control | [9] 91 % of control | [10] 86 % of control | [11] 96 % of control

c1ccc([CH2][Pb]([c]2ccccc2)([c]2ccccc2)[c]2ccccc2)cc1
inactive: [12] 93 % of control | [13] 94 % of control | [4] 96 % of control | dose: 200.0 mg/kg/injection, schedule: Q01DX001 (ip), vehicle: saline with Tween-80 108 % of control | dose: 400.0 mg/kg/injection, schedule: Q01DX001 (ip), vehicle: saline with Tween-80 97 % of control

CCCCCCCCCCC(=O)N(CCC)CCC
inactive: dose: 100.0 mg/kg/injection, schedule: Q01DX009 (ip), vehicle: carboxymethylcellulose (CMC) 97 % of control | dose: 100.0 mg/kg/injection, schedule: Q04DX002 (ip), vehicle: carboxymethylcellulose (CMC) 91 % of control | dose: 200.0 mg/kg/injection, schedule: Q01DX009 (ip), vehicle: carboxymethylcellulose (CMC) 93 % of control and 92 % of control | dose: 200.0 mg/kg/injection, schedule: Q04DX002 (ip), vehicle: carboxymethylcellulose (CMC) 93 % of control | dose: 400.0 mg/kg/injection, schedule: Q01DX009 (ip), vehicle: carboxymethylcellulose (CMC) 86 % of control | dose: 400.0 mg/kg/injection, schedule: Q04DX002 (ip), vehicle: carboxymethylcellulose (CMC) 88 % of control

COc1ccc(OC(C)=O)c(C=O)c1
inactive: [9] 100 % of control | [10] 103 % of control

O=c1[nH]c(=O)n(CCCOc2ccccc2)cc1CCc1ccccc1
inactive: dose: 100.0 mg/kg/injection, schedule: Q01DX001 (ip), vehicle: Klucel (hydroxypropylcellulose) (HPC) 91 % of control | dose: 200.0 mg/kg/injection, schedule: Q01DX001 (ip), vehicle: Klucel (hydroxypropylcellulose) (HPC) 94 % of control | dose: 400.0 mg/kg/injection, schedule: Q01DX001 (ip), vehicle: Klucel (hydroxypropylcellulose) (HPC) 87 % of control

O=C1CC2(CCNCC2)C(=O)N1N1CCCCCC1
inactive: [14] 110 % of control | [15] 112 % of control | [16] 100 % of control

ClC1C2CC3C(C2)C13 (centres undefined)
inactive: [9] 95 % of control | [10] 95 % of control | [11] 95 % of control

O=C(OCC1OCOC(COC(=O)c2ccccc2)C1O)c1ccccc1 (centres undefined)
inactive: dose: 50.0 mg/kg/injection, schedule: Q04DX002 (ip), vehicle: saline with Tween-80 118 % of control | dose: 100.0 mg/kg/injection, schedule: Q04DX002 (ip), vehicle: saline with Tween-80 112 % of control | dose: 200.0 mg/kg/injection, schedule: Q04DX002 (ip), vehicle: saline with Tween-80 102 % of control

N#C/C(=C\c1ccco1)C1CCC([N+](=O)[O-])CC1 (centres undefined)
inactive: [17] 104 % of control | [18] 104 % of control | [19] 93 % of control

CSc1ccc(NC(=O)CCl)cc1
inactive: [12] 97 % of control | [20] 97 % of control | [13] 108 % of control | dose: 50.0 mg/kg/injection, schedule: Q04DX003 (ip), vehicle: saline with Tween-80 95 % of control | [4] 100 % of control | [5] 101 % of control

c1ccc(CC(Cc2ccccc2)c2nc3ccccc3s2)cc1
inactive: dose: 75.0 mg/kg/injection, schedule: Q01DX009 (ip), vehicle: saline 98 % of control | [21] 98 % of control | dose: 150.0 mg/kg/injection, schedule: Q01DX009 (ip), vehicle: saline 98 % of control | [22] 92 % of control | dose: 300.0 mg/kg/injection, schedule: Q01DX009 (ip), vehicle: saline 95 % of control | [23] 92 % of control

Cc1cnc(-n2nc(-c3ccccc3)c3c2-c2ccccc2C3)nc1-c1ccccc1O
inactive: dose: 6.25 mg/kg/injection, schedule: Q01DX009 (ip), vehicle: Klucel (hydroxypropylcellulose) (HPC) 91 % of control | dose: 12.5 mg/kg/injection, schedule: Q01DX009 (ip), vehicle: Klucel (hydroxypropylcellulose) (HPC) 87 % of control

O=C(Nc1ccccn1)c1cc(N2CCOCC2)ccn1
inactive: [14] 102 % of control

CCCC(C(=O)O)C1=CCCC1 (centres undefined)
inactive: [4] 88 % of control | [21] 98 % of control | [22] 103 % of control | [23] 101 % of control

CC(=O)OC1CCC2(C)C(=CC(=O)C3=C2CCC2(C)C3CCC2C(C)/C=C/C(C)C(C)C)C1 (centres undefined)
inactive: [1] 92 % of control | [21] 88 % of control | [2] 95 % of control | [22] 97 % of control | [3] 92 % of control | [23] 91 % of control

CC(=O)OC(C(=O)c1ccccc1)c1ccccc1 (centres undefined)
inactive: [6] 94 % of control | [24] 104 % of control | [7] 94 % of control | dose: 200.0 mg/kg/injection, schedule: Q04DX003 (ip), vehicle: Klucel (hydroxypropylcellulose) (HPC) 104 % of control | [8] 104 % of control | [25] 91 % of control

CSc1n[nH]c(=O)[nH]c1=O
inactive: [14] 100 % of control | [15] 102 % of control | [16] 94 % of control

CC(=O)c1cc(I)c(O)c2ncccc12
inactive: dose: 6.25 mg/kg/injection, schedule: Q01DX009 (ip), vehicle: saline with Tween-80 91 % of control | dose: 6.25 mg/kg/injection, schedule: Q04DX003 (ip), vehicle: saline with Tween-80 95 % of control | dose: 12.5 mg/kg/injection, schedule: Q01DX009 (ip), vehicle: saline with Tween-80 91 % of control | dose: 12.5 mg/kg/injection, schedule: Q04DX003 (ip), vehicle: saline with Tween-80 106 % of control | [12] 89 % of control | [20] 116 % of control and 91 % of control | [5] 107 % of control

CC(=O)OC1CCC2(C)C(=CCC3C2CCC2(C)c4c(c(-c5ccccc5)nn4-c4ccccc4)CC32)C1 (centres undefined)
inactive: [17] 98 % of control | [18] 90 % of control | [19] 95 % of control

O=C1OCC/C1=C/CCCC/C=C1\CCOC1=O
inactive: [6] 93 % of control | [24] 94 % of control | [7] 98 % of control | dose: 266.0 mg/kg/injection, schedule: Q04DX003 (ip), vehicle: Klucel (hydroxypropylcellulose) (HPC) 93 % of control | [25] 94 % of control
